This is an account of results in publication PMC9570490, “Novel Morpholine-Bearing Quinoline Derivatives as Potential Cholinesterase Inhibitors: The Influence of Amine, Carbon Linkers and Phenylamino Groups” (International Journal of Molecular Sciences, 2022).

The target of assay [1] is T1, AChE (EC 3.1.1.7, from electric eel) (Electrophorus electricus, UniProt O42275).
T1 construct: purchased Sigma-Aldrich
Put plainly: biochemical. The conditions noted are these: for IC50: means ± SD, at least three independents. As to the method:
(§1) AChE and BChE inhibitory activities of compounds were determined by using a modified Ellman’s method. AChE (EC 3.1.1.7, from electric eel), BChE (EC 3.1.1.8, from horse serum), 5,5′-dithiobis(2nitrobenzoic acid) (DTNB), acetylthiocholine iodide (ATCI) and butyrylthiocholine iodide (BTCI) were purchased from Sigma-Aldrich. The reaction mixture contained 140 μL of 100 mM sodium phosphate buffer (pH 8.0), the enzyme solution (either 0.05 U/mL of AChE, 20 μL; or 0.05 U/mL of BChE, 20 μL), and test compound (20 μL). Assayed solutions of test compounds were pre-incubated with corresponding ChE at 25 °C for 15 min. The reaction was initiated by the addition of 10 μL of 10 mM DTNB and 10 μL of 7.5 mM substrate (ATCI or BTCI). The activity was determined by measuring the increase in absorbance at 412 nm at 37 °C in 10 min intervals using a microplate reader. The percentage of inhibition was calculated from the measured data as follows: (Ac − Ai)/Ac × 100%, where Ai and Ac represent the change in the absorbance in the presence of inhibitor and without inhibitor, respectively.

For assay [2], the target named is T2, BChE (EC 3.1.1.8, from horse serum) (Equus caballus, UniProt P81908).
T2 construct: BChE (EC 3.1.1.8, from horse serum); purchased Sigma-Aldrich; host or cells: horse serum
Put plainly: biochemical. The conditions noted are these: means ± SD, at least three independents. As to the method: as §1

Assay [3] can be described thus: ABTS radical-scavenging assay. As to the method: ABTS radical-scavenging activity was measured by using the modified method. The test compound was dissolved in ethanol as 1.0 mg/mL, 0.5 mg/mL, 0.25 mg/mL, 0.125 mg/mL, 0.0625 mg/mL, and 0.03125 mg/mL. Similarly, the ethanol solution of Trolox with the same concentration gradient was prepared as a positive control. ABTS solution at a concentration of 7 mM and potassium persulfate solution at a concentration of 2.45 mM with distilled water were also prepared. The ABTS solution and the potassium persulfate solution were mixed in equal amounts, and then placed in the dark and protected from light for 12 h. The ABTS standard solution was diluted with ethanol until the absorbance value at 734 nm was in the range of 0.7 ± 0.05. Then, 3900 µL of ABTS cation solution was mixed with 100 µL of test compound at different concentrations. The samples were kept in the dark for 10 min at room temperature and absorption was measured at 734 nm on a spectrophotometer. The percentage of ABTS radical-scavenging activity was calculated as follows: (Ac−Ai)/Ac × 100%, where Ai and Ac represented the change in absorbance in the presence and absence of the test sample, respectively.

T2 sequence (P81908 whole entry): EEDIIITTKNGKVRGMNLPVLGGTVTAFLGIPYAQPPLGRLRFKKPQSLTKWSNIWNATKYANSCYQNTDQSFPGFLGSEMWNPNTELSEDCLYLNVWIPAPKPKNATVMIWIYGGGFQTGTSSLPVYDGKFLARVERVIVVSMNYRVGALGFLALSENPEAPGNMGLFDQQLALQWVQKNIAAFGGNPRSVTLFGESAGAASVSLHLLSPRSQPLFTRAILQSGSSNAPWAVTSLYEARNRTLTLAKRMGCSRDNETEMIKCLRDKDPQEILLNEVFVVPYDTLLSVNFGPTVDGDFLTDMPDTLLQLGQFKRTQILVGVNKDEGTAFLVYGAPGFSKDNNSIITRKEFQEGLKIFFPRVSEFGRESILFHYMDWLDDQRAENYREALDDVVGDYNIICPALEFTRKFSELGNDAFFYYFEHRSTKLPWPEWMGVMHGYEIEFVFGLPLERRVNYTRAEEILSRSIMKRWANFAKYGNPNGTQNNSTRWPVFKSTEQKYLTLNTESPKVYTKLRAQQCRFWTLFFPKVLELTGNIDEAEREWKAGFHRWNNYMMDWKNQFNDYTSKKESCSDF
T1 sequence (O42275 24-633): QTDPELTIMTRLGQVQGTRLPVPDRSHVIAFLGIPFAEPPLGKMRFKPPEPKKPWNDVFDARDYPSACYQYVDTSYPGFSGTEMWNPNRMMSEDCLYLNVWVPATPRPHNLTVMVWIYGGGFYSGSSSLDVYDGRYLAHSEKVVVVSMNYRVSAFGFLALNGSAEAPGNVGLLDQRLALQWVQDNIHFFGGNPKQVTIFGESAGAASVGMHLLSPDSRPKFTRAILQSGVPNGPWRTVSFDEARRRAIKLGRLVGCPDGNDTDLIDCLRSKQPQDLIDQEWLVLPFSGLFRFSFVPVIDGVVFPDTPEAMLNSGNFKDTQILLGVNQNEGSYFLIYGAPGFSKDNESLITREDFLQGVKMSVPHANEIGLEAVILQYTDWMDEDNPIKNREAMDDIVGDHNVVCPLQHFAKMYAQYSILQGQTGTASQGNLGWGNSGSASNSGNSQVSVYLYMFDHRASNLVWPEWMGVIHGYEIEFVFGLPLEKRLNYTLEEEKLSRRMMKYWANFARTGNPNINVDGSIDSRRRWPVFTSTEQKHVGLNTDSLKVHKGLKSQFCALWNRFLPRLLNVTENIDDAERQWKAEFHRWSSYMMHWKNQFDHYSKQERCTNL

By IC50 is commonly meant the concentration needed to halve the response being measured. In the case of `COc1cc2c(Nc3ccccc3Cl)c([N+](=O)[O-])cnc2cc1OCCCN1CCOCC1` [11b, 6-Methoxy-7-(3-Morpholinopropoxy)-3-Nitro-4-(2-Chlorophenylamino)-Quinoline], the “SI for AChE = IC50 BChE/IC50 AChE” value in assay [1] is 10.42. Further, the half-maximal inhibitory concentration (IC50) in assay [1] amounted to 12.5 ± 0.21 µM; in assay [2] it was 130 ± 4.62 µM.

Consider `COc1cc2c(Nc3cccc(Cl)c3)c([N+](=O)[O-])cnc2cc1OCCCN1CCOCC1` [11c, 6-Methoxy-7-(3-Morpholinopropoxy)-3-Nitro-4-(3-Chlorophenylamino)-Quinoline], for which, in assay [1], the “SI for AChE = IC50 BChE/IC50 AChE” value came out at 3.55 and it took 32.4 ± 0.16 µM to reach half-maximal inhibition (IC50). The molecule further returned an IC50 in assay [2] of 114 ± 5.36 µM.

Take `COc1cc2c(Nc3ccc(Cl)cc3)c([N+](=O)[O-])cnc2cc1OCCCN1CCOCC1` [11d, 6-Methoxy-7-(3-Morpholinopropoxy)-3-Nitro-4-(4-Chlorophenylamino)-Quinoline]: in assay [1], the “SI for AChE = IC50 BChE/IC50 AChE” value is given as 0.92 and inhibition was half-maximal at 88.7 ± 1.1 µM (IC50). Besides, in assay [2], the 50% inhibitory concentration (IC50) was 82.4 ± 3.06 µM.

In the case of `COc1cc2c(Nc3ccc(O)cc3)c([N+](=O)[O-])cnc2cc1OCCCN1CCOCC1` [11e, 6-Methoxy-7-(3-Morpholinopropoxy)-3-Nitro-4-(4-Hydroxylphenylamino)-Quinoline], in assay [1], the “SI for AChE = IC50 BChE/IC50 AChE” value is given as above 4.35. For the same molecule, the half-inhibitory concentration (IC50) is 34.47 ± 0.09 µM in assay [1], above 150 µM in assay [2] and 26.4 ± 3.28 µM in assay [3]. Further, the “ABTS radical-scavenging IC50” value in assay [3] came out at 12.01 ± 1.49 µg/mL.

In the case of `COc1ccc(Nc2c([N+](=O)[O-])cnc3cc(OCCCN4CCOCC4)c(OC)cc23)cc1` [11f, 6-Methoxy-7-(3-Morpholinopropoxy)-3-Nitro-4-(4-Methoxyphenylamino)-Quinoline], in assay [1], the “SI for AChE = IC50 BChE/IC50 AChE” value is recorded as 7.54 and inhibition was half-maximal at 12.8 ± 0.55 µM (IC50). The molecule further registered a 50% inhibitory concentration (IC50) in assay [2] of 96.6 ± 4.75 µM. In assay [3], the “ABTS radical-scavenging IC50” value amounted to 4.25 ± 0.63 µg/mL and half-maximal inhibition (IC50) was put at 9.07 ± 1.34 µM.

Consider `COc1cc2c(Nc3ccccc3Cl)c([N+](=O)[O-])cnc2cc1OCCN1CCOCC1` [11h, 6-Methoxy-7-(2-Morpholinoethoxy)-3-Nitro-4-(2-Chlorophenylamino)-Quinoline], for which the “SI for AChE = IC50 BChE/IC50 AChE” value in assay [1] turned out to be 12.55. In addition, the IC50 in assay [1] was determined as 6.46 ± 0.77 µM; in assay [2] it was 81.1 ± 4.03 µM.

On to `COc1cc2c(Nc3cccc(Cl)c3)c([N+](=O)[O-])cnc2cc1OCCN1CCOCC1` [11i, 6-Methoxy-7-(2-Morpholinoethoxy)-3-Nitro-4-(3-Chlorophenylamino)-Quinoline], for which, in assay [1], the “SI for AChE = IC50 BChE/IC50 AChE” value stood at 11.08 and the IC50 stood at 10 ± 0.52 µM. In assay [2], this molecule gave an IC50 of 111 ± 5.59 µM.

On to `COc1cc2c(Nc3ccc(Cl)cc3)c([N+](=O)[O-])cnc2cc1OCCN1CCOCC1` [11j, 6-Methoxy-7-(2-Morpholinoethoxy)-3-Nitro-4-(4-Chlorophenylamino)-Quinoline], for which the “SI for AChE = IC50 BChE/IC50 AChE” value in assay [1] is 8.90. In addition, the half-maximal inhibitory concentration (IC50) is 8.63 ± 0.4 µM in assay [1] and 76.8 ± 3.76 µM in assay [2].

On to `COc1cc2c(Nc3ccc(O)cc3)c([N+](=O)[O-])cnc2cc1OCCN1CCOCC1` [11k, 6-Methoxy-7-(2-Morpholinoethoxy)-3-Nitro-4-(4-Hydroxylphenylamino)-Quinoline], for which, in assay [1], the “SI for AChE = IC50 BChE/IC50 AChE” value is recorded as above 8.11 and it took 18.5 ± 1.74 µM to reach half-maximal inhibition (IC50). Further, in assay [2], the IC50 is above 150 µM. The “ABTS radical-scavenging IC50” value in assay [3] was 5.75 ± 1.37 µg/mL.

`COc1ccc(Nc2c([N+](=O)[O-])cnc3cc(OCCN4CCOCC4)c(OC)cc23)cc1` [11l, 6-Methoxy-7-(2-Morpholinoethoxy)-3-Nitro-4-(4-Methoxyphenyamino)-Quinoline]: in assay [1], the “SI for AChE = IC50 BChE/IC50 AChE” value stood at 7.03 and the IC50 amounted to 9.08 ± 0.53 µM. Besides, in assay [2], 63.9 ± 2.87 µM corresponded to half-maximal inhibition (IC50). Also, in assay [3], the “ABTS radical-scavenging IC50” value was 2.75 ± 0.53 µg/mL and the IC50 was 6.05 ± 1.17 µM.

In the case of `COc1cc2c(Nc3ccccc3)c([N+](=O)[O-])cnc2cc1OCCCCN1CCOCC1` [11m, 6-Methoxy-7-(4-Morpholinobutoxy)-3-Nitro-4-Phenylamino-Quinoline], in assay [1], the “SI for AChE = IC50 BChE/IC50 AChE” value is above 11.24 and the half-inhibitory concentration (IC50) turned out to be 13.34 ± 0.07 µM. For the same molecule, in assay [2], the concentration for half-maximal inhibition (IC50) is above 150 µM.

For `COc1cc2c(Nc3ccccc3Cl)c([N+](=O)[O-])cnc2cc1OCCCCN1CCOCC1` [11n, 6-Methoxy-7-(4-Morpholinobutoxy)-3-Nitro-4-(2-Chlorophenylamino)-Quinoline], in assay [1], the “SI for AChE = IC50 BChE/IC50 AChE” value is given as above 1.75 and 85.57 ± 0.04 µM corresponded to half-maximal inhibition (IC50). Besides, the IC50 in assay [2] is above 150 µM.

Take `COc1cc2c(Nc3cccc(Cl)c3)c([N+](=O)[O-])cnc2cc1OCCCCN1CCOCC1` [11o, 6-Methoxy-7-(4-Morpholinobutoxy)-3-Nitro-4-(3-Chlorophenylamino)-Quinoline]: in assay [1], the “SI for AChE = IC50 BChE/IC50 AChE” value is listed as below 0.77 and the half-maximal inhibitory concentration (IC50) is above 150 µM. In assay [2], this molecule gave an IC50 of 116 ± 5.36 µM.

For the molecule `COc1cc2c(Nc3ccc(Cl)cc3)c([N+](=O)[O-])cnc2cc1OCCCCN1CCOCC1` [11p, 6-Methoxy-7-(4-Morpholinobutoxy)-3-Nitro-4-(4-Chlorophenylamino)-Quinoline], the “SI for AChE = IC50 BChE/IC50 AChE” value in assay [1] turned out to be 1.08. For the same molecule, the IC50 was 90.46 ± 0.06 µM in assay [1] and 98.1 ± 0.02 µM in assay [2].

For the molecule `COc1cc2c(Nc3ccc(O)cc3)c([N+](=O)[O-])cnc2cc1OCCCCN1CCOCC1` [11q, 6-Methoxy-7-(4-Morpholinobutoxy)-3-Nitro-4-(4-Hydroxyphenylamino)-Quinoline], in assay [1], the “SI for AChE = IC50 BChE/IC50 AChE” value is listed as above 4.07 and the half-maximal inhibitory concentration (IC50) worked out at 36.8 ± 0.45 µM. In assay [2], the 50% inhibitory concentration (IC50) was above 150 µM. For the same molecule, in assay [3], the “ABTS radical-scavenging IC50” value was 26.12 ± 2.13 µg/mL and the 50% inhibitory concentration (IC50) was 55.8 ± 4.55 µM.

Take `COc1ccc(Nc2c([N+](=O)[O-])cnc3cc(OCCCCN4CCOCC4)c(OC)cc23)cc1` [11r, 6-Methoxy-7-(4-Morpholinobutoxy)-3-Nitro-4-(4-Methoxyphenylamino)-Quinoline]: in assay [1], the “SI for AChE = IC50 BChE/IC50 AChE” value was found to be 5.65 and half-maximal inhibition (IC50) required 18.9 ± 0.51 µM. In assay [2], this molecule yielded an IC50 of 106 ± 1.16 µM. In addition, in assay [3], the “ABTS radical-scavenging IC50” value was 11.25 ± 1.27 µg/mL and half-maximal inhibition (IC50) was put at 23.3 ± 2.63 µM.

As to `COc1cc2c(Nc3ccccc3Cl)c(N)cnc2cc1OCCCN1CCOCC1` [12b, 6-Methoxy-7-(3-Morpholinopropoxy)-3-Amino-4-(2-Chlorophenylamino)-Quinoline], in assay [1], the “SI for AChE = IC50 BChE/IC50 AChE” value turned out to be 3.01 and the IC50 was found to be 43.3 ± 0.68 µM. The same molecule returned an IC50 in assay [2] of 130 ± 3.76 µM.

As to `COc1cc2c(Nc3ccc(Cl)cc3)c(N)cnc2cc1OCCCN1CCOCC1` [12d, 6-Methoxy-7-(3-Morpholinopropoxy)-3-Amino-4-(4-Chlorophenylamino)-Quinoline], in assay [1], the “SI for AChE = IC50 BChE/IC50 AChE” value is reported as 6.63 and the 50% inhibitory concentration (IC50) was 21.84 ± 0.2 µM. The molecule further showed a 50% inhibitory concentration (IC50) in assay [2] of 145 ± 4.25 µM.

Regarding `Cc1c(C)c2c(c(C)c1O)CCC(C)(C(=O)O)O2` (stereo not shown) [Trolox, reference compound], in assay [3], the “ABTS radical-scavenging IC50” value was 2.76 ± 0.19 µg/mL and the IC50 is 11 ± 0.76 µM.
